Assay results reported in PubChem BioAssay (NCI).
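In this assay, cells in 96-well plates receive the compound at five concentrations for 48 hours. Endpoints are linearly interpolated between the surrounding concentrations. GI50: concentration for 50% inhibition of growth. The concentration for full growth arrest is given as TGI.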

Legend:
Experiment in all cases: NCI tumour cell line growth inhibition, 48 h
NCI-H522 lung = tested on: NCI-H522 lung
SNB-19 CNS = tested on: SNB-19 CNS
RXF 393 renal = tested on: RXF 393 renal
NCI-H460 lung = tested on: NCI-H460 lung
HT29 colon = tested on: HT29 colon
K-562 leukemia = tested on: K-562 leukemia
UACC-62 melanoma = tested on: UACC-62 melanoma
A549 NSCLC = tested on: A549 NSCLC
HCT-15 colon = tested on: HCT-15 colon
HS 578T breast = tested on: HS 578T breast
SF-295 CNS = tested on: SF-295 CNS
DU-145 prostate = tested on: DU-145 prostate
MALME-3M melanoma = tested on: MALME-3M melanoma
TK-10 renal = tested on: TK-10 renal
U251 CNS = tested on: U251 CNS
SW-620 colon = tested on: SW-620 colon
HCC-2998 colon = tested on: HCC-2998 colon
MCF7 breast = tested on: MCF7 breast
BT-549 breast = tested on: BT-549 breast
SR leukemia = tested on: SR leukemia
OVCAR-8 ovarian = tested on: OVCAR-8 ovarian
SK-OV-3 ovarian = tested on: SK-OV-3 ovarian
OVCAR-3 ovarian = tested on: OVCAR-3 ovarian
OVCAR-4 ovarian = tested on: OVCAR-4 ovarian
M14 melanoma = tested on: M14 melanoma
KM12 colon = tested on: KM12 colon
MDA-MB-435 = tested on: MDA-MB-435
T-47D breast = tested on: T-47D breast
SN12C renal = tested on: SN12C renal
ACHN renal = tested on: ACHN renal
RPMI-8226 leukemia = tested on: RPMI-8226 leukemia
SF-268 CNS = tested on: SF-268 CNS
SF-539 CNS = tested on: SF-539 CNS
MDA-MB-231 breast = tested on: MDA-MB-231 breast
786-0 renal = tested on: 786-0 renal
HCT-116 colon = tested on: HCT-116 colon
SK-MEL-28 melanoma = tested on: SK-MEL-28 melanoma
COLO 205 colon = tested on: COLO 205 colon
CAKI-1 renal = tested on: CAKI-1 renal
A498 renal = tested on: A498 renal
PC-3 prostate = tested on: PC-3 prostate
NCI-H226 lung = tested on: NCI-H226 lung
NCI/ADR-RES ovarian = tested on: NCI/ADR-RES ovarian
LOX IMVI melanoma = tested on: LOX IMVI melanoma
HOP-62 NSCLC = tested on: HOP-62 NSCLC
UO-31 renal = tested on: UO-31 renal
OVCAR-5 ovarian = tested on: OVCAR-5 ovarian
SK-MEL-2 melanoma = tested on: SK-MEL-2 melanoma
NCI-H23 lung = tested on: NCI-H23 lung
EKVX NSCLC = tested on: EKVX NSCLC
IGROV1 ovarian = tested on: IGROV1 ovarian
HOP-92 NSCLC = tested on: HOP-92 NSCLC
HL-60(TB) leukemia = tested on: HL-60(TB) leukemia
MOLT-4 leukemia = tested on: MOLT-4 leukemia
SK-MEL-5 melanoma = tested on: SK-MEL-5 melanoma
SNB-75 CNS = tested on: SNB-75 CNS
UACC-257 melanoma = tested on: UACC-257 melanoma

SMILES: Cc1cc(I)cc(CNCCN2CCOCC2)c1O
- GI50 (NCI-H522 lung): 92.8 µM
- TGI (NCI-H522 lung): > 100 µM
- GI50 (SNB-19 CNS): > 100 µM
- TGI (SNB-19 CNS): > 100 µM
- GI50 (RXF 393 renal): 48.5 µM
- TGI (RXF 393 renal): > 100 µM
- GI50 (NCI-H460 lung): 52.8 µM
- TGI (NCI-H460 lung): > 100 µM
- GI50 (HT29 colon): > 100 µM
- TGI (HT29 colon): > 100 µM
- GI50 (K-562 leukemia): 87.5 µM
- TGI (K-562 leukemia): > 100 µM
- GI50 (UACC-62 melanoma): > 100 µM
- TGI (UACC-62 melanoma): > 100 µM
- GI50 (A549 NSCLC): > 100 µM
- TGI (A549 NSCLC): > 100 µM
- GI50 (HCT-15 colon): > 100 µM
- TGI (HCT-15 colon): > 100 µM
- GI50 (HS 578T breast): > 100 µM
- TGI (HS 578T breast): > 100 µM
- GI50 (SF-295 CNS): 36 µM
- TGI (SF-295 CNS): > 100 µM
- GI50 (DU-145 prostate): 26.3 µM
- TGI (DU-145 prostate): > 100 µM
- GI50 (MALME-3M melanoma): > 100 µM
- TGI (MALME-3M melanoma): > 100 µM
- GI50 (TK-10 renal): > 100 µM
- TGI (TK-10 renal): > 100 µM
- GI50 (U251 CNS): > 100 µM
- TGI (U251 CNS): > 100 µM
- GI50 (SW-620 colon): > 100 µM
- TGI (SW-620 colon): > 100 µM
- GI50 (HCC-2998 colon): 43.9 µM
- TGI (HCC-2998 colon): > 100 µM
- GI50 (MCF7 breast): > 100 µM
- TGI (MCF7 breast): > 100 µM
- GI50 (BT-549 breast): 15.4 µM
- TGI (BT-549 breast): 61.3 µM
- GI50 (SR leukemia): 90.2 µM
- TGI (SR leukemia): > 100 µM
- GI50 (OVCAR-8 ovarian): > 100 µM
- TGI (OVCAR-8 ovarian): > 100 µM
- GI50 (SK-OV-3 ovarian): > 100 µM
- TGI (SK-OV-3 ovarian): > 100 µM
- GI50 (OVCAR-3 ovarian): > 100 µM
- TGI (OVCAR-3 ovarian): > 100 µM
- GI50 (OVCAR-4 ovarian): > 100 µM
- TGI (OVCAR-4 ovarian): > 100 µM
- GI50 (M14 melanoma): 26.9 µM
- TGI (M14 melanoma): > 100 µM
- GI50 (KM12 colon): 86.8 µM
- TGI (KM12 colon): > 100 µM
- GI50 (MDA-MB-435): > 100 µM
- TGI (MDA-MB-435): > 100 µM
- GI50 (T-47D breast): 84.8 µM
- TGI (T-47D breast): > 100 µM
- GI50 (SN12C renal): > 100 µM
- TGI (SN12C renal): > 100 µM
- GI50 (ACHN renal): > 100 µM
- TGI (ACHN renal): > 100 µM
- GI50 (RPMI-8226 leukemia): > 100 µM
- TGI (RPMI-8226 leukemia): > 100 µM
- GI50 (SF-268 CNS): 93.2 µM
- TGI (SF-268 CNS): > 100 µM
- GI50 (SF-539 CNS): 37.2 µM
- TGI (SF-539 CNS): > 100 µM
- GI50 (MDA-MB-231 breast): > 100 µM
- TGI (MDA-MB-231 breast): > 100 µM
- GI50 (786-0 renal): 36.9 µM
- TGI (786-0 renal): > 100 µM
- GI50 (HCT-116 colon): 37.2 µM
- TGI (HCT-116 colon): > 100 µM
- GI50 (SK-MEL-28 melanoma): > 100 µM
- TGI (SK-MEL-28 melanoma): > 100 µM
- GI50 (COLO 205 colon): > 100 µM
- TGI (COLO 205 colon): > 100 µM
- GI50 (CAKI-1 renal): > 100 µM
- TGI (CAKI-1 renal): > 100 µM
- GI50 (A498 renal): > 100 µM
- TGI (A498 renal): > 100 µM
- GI50 (PC-3 prostate): > 100 µM
- TGI (PC-3 prostate): > 100 µM
- GI50 (NCI-H226 lung): > 100 µM
- TGI (NCI-H226 lung): > 100 µM
- GI50 (NCI/ADR-RES ovarian): 12.5 µM
- TGI (NCI/ADR-RES ovarian): > 100 µM
- GI50 (LOX IMVI melanoma): > 100 µM
- TGI (LOX IMVI melanoma): > 100 µM
- GI50 (HOP-62 NSCLC): 29.4 µM
- TGI (HOP-62 NSCLC): > 100 µM
- GI50 (UO-31 renal): 67.8 µM
- TGI (UO-31 renal): > 100 µM
- GI50 (OVCAR-5 ovarian): 59.8 µM
- TGI (OVCAR-5 ovarian): > 100 µM
- GI50 (SK-MEL-2 melanoma): > 100 µM
- TGI (SK-MEL-2 melanoma): > 100 µM
- GI50 (NCI-H23 lung): 27.5 µM
- TGI (NCI-H23 lung): > 100 µM
- GI50 (EKVX NSCLC): 24.3 µM
- TGI (EKVX NSCLC): > 100 µM
- GI50 (IGROV1 ovarian): 67 µM
- TGI (IGROV1 ovarian): > 100 µM
- GI50 (HOP-92 NSCLC): 59.8 µM
- TGI (HOP-92 NSCLC): > 100 µM
- GI50 (HL-60(TB) leukemia): > 100 µM
- TGI (HL-60(TB) leukemia): > 100 µM
- GI50 (MOLT-4 leukemia): > 100 µM
- TGI (MOLT-4 leukemia): > 100 µM
- GI50 (SK-MEL-5 melanoma): 67.1 µM
- TGI (SK-MEL-5 melanoma): > 100 µM
- GI50 (SNB-75 CNS): 75.6 µM
- TGI (SNB-75 CNS): > 100 µM
- GI50 (UACC-257 melanoma): > 100 µM
- TGI (UACC-257 melanoma): > 100 µM
